Reference: US20250136576A1, “Heterocyclic Compounds and Uses Thereof” (ACEA Therapeutics, Inc., priority 2021, published 2025)

Tested on: KM12-luc cells
Assay: Cell proliferation and growth inhibition assay (CCK-8) in KM12-luc
Format: cell-based
Settings: KM12-Luc, 72 h, KM12-luc cells, treated with test compounds for 72 hrs, CCK-8 viability; read-out: NTRK IC50 in KM12-luc
Outline: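 Cells were grown at 37 °C, 5% CO2 with 10% FBS: MV-4-11 in IMDM, H1975 in RPMI 1640, KM12-luc in DMEM. Viability was read by CCK-8 (1-4 hrs reagent incubation, absorbance at OD450). IC50 came from a non-linear sigmoidal dose-response fit.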

How did the IC50 turn out when `Cc1nc2cc(Nc3ncc(C(F)(F)F)c(-c4c[nH]c5c(F)cccc45)n3)ccc2n1CCN(C)C` [Compound 342, 1-(2-(dimethylamino)ethyl)-N-(4-(7-fluoro-1H-indol-3-yl)-5-(trifluoromethyl)pyrimidin-2-yl)-2-methyl-1H-benzo[d]imidazol-5-amine] was run?
Its IC50 is 24.6 nM.

`CC(=O)Nc1cc(Nc2ncc(C(F)(F)F)c(-c3cn(C)c4c(F)cccc34)n2)ccc1N(C)CCN(C)C` [Compound 346, N-(2-((2-(dimethylamino)ethyl)(methyl)amino)-5-((4-(7-fluoro-1-methyl-1H-indol-3-yl)-5-(trifluoromethyl)pyrimidin-2-yl)amino)phenyl)acetamide] was tested. Which IC50 did it give?
The IC50 was 105 nM.

For `CN(C)CCN(C)c1ccc(Nc2ncc(C(F)(F)F)c(-c3cn(C)c4c(F)cccc34)n2)cc1N` [Compound 347, N^1-(2-(dimethylamino)ethyl)-N^4-(4-(7-fluoro-1-methyl-1H-indol-3-yl)-5-(trifluoromethyl)pyrimidin-2-yl)-N^1-methylbenzene-1,2,4-triamine], which IC50 is on record?
Its IC50 is 114 nM.

Which IC50 does the source give for `CCN(CCN(C)C)c1ccc(Nc2ncc(C(F)(F)F)c(-c3cn(C)c4c(F)cccc34)n2)cc1NC(C)=O` [Compound 348, N-(2-((2-(dimethylamino)ethyl)(ethyl)amino)-5-((4-(7-fluoro-1-methyl-1H-indol-3-yl)-5-(trifluoromethyl)pyrimidin-2-yl)amino)phenyl)acetamide] here?
Its IC50 is 87.8 nM.

Which IC50 does the source give for `CCN(CCN(C)C)c1ccc(Nc2ncc(C(F)(F)F)c(-c3cn(C)c4c(F)cccc34)n2)cc1N` [Compound 349, N^1-(2-(dimethylamino)ethyl)-N^1-ethyl-N^4-(4-(7-fluoro-1-methyl-1H-indol-3-yl)-5-(trifluoromethyl)pyrimidin-2-yl)benzene-1,2,4-triamine] here?
The IC50 was 245 nM.

`CC(=O)Nc1cc(Nc2ncc(C(F)(F)F)c(-c3cn(C)c4c(F)cccc34)n2)ccc1N(CCN(C)C)C(C)=O` [Compound 350, N-(2-acetamido-4-((4-(7-fluoro-1-methyl-1H-indol-3-yl)-5-(trifluoromethyl)pyrimidin-2-yl)amino)phenyl)-N-(2-(dimethylamino)ethyl)acetamide] was tested. Which IC50 did it give?
Its IC50 is 126 nM.

How did the IC50 turn out when `Cc1nc2cc(Nc3ncc(C(F)(F)F)c(-c4cn(C)c5c(F)cccc45)n3)ccc2n1CCN(C)C` [Compound 351, 1-(2-(dimethylamino)ethyl)-N-(4-(7-fluoro-1-methyl-1H-indol-3-yl)-5-(trifluoromethyl)pyrimidin-2-yl)-2-methyl-1H-benzo[d]imidazol-5-amine] was run?
The IC50 was 172 nM.

Which IC50 does the source give for `CC(=O)Nc1cc(Nc2ncc(C(F)(F)F)c(-c3cn(C)c4c(F)cccc34)n2)ccc1OCCN(C)C` [Compound 352, N-(2-(2-(dimethylamino)ethoxy)-5-((4-(7-fluoro-1-methy-1H-indol-3-yl)-5-(trifluoromethyl)pyrimidin-2-yl)amino)phenyl)acetamide] here?
The IC50 was 42.1 nM.

With `CC(=O)Nc1cc(Nc2ncc(C(F)(F)F)c(-c3cn(C)c4cc(F)c(F)cc34)n2)ccc1N(C)CCN(C)C` [Compound 355, N-(5-((4-(5,6-difluoro-1-methyl-1H-indol-3-yl)-5-(trifluoromethyl)pyrimidin-2-yl)amino)-2-((2-(dimethylamino)ethyl)(methyl)amino)phenyl)acetamide] as the compound, how does the IC50 read?
Its IC50 is 70.4 nM.

For `CC(=O)Nc1cc(Nc2ncc(C(F)(F)F)c(-c3cn(C)c4ccc(C)cc34)n2)ccc1N(C)CCN(C)C` [Compound 356, N-(5-((4-(1,5-dimethyl-1H-indol-3-yl)-5-(trifluoromethyl)pyrimidin-2-yl)amino)-2-((2-(dimethylamino)ethyl)(methyl)amino)phenyl)acetamide], which IC50 is on record?
The IC50 was 327 nM.

`COc1ccc2c(c1)c(-c1nc(Nc3ccc(N(C)CCN(C)C)c(NC(C)=O)c3)ncc1C(F)(F)F)cn2C` [Compound 357, N-(2-((2-(dimethylamino)ethyl)(methyl)amino)-5-((4-(5-methoxy-1-methyl-1H-indol-3-yl) 5-(trifluoromethyl)pyrimidin-2-yl)amino)phenyl)acetamide] was tested. Which IC50 did it give?
Its IC50 is 1080 nM.

`CC(=O)Nc1cc(Nc2ncc(C(F)(F)F)c(-c3c[nH]c4c(C)cccc34)n2)ccc1N(CCN(C)C)C(C)=O` [Compound 363, N-(2-acetamido-4-((4-(7-methyl-1H-indol-3-yl)-5-(trifluoromethyl)pyrimidin-2-yl)amino)phenyl)-N-(2-(dimethylamino)ethyl)acetamide] was tested. Which IC50 did it give?
Its IC50 is 93.4 nM.

`Cc1cccc2c(-c3nc(Nc4ccc5c(c4)nc(C)n5CCN(C)C)ncc3C(F)(F)F)c[nH]c12` [Compound 364, 1-(2-(dimethylamino)ethyl)-2-methyl-N-(4-(7-methyl-1H-indol-3-yl)-5-(trifluoromethyl)pyrimidin-2-yl)-1H-benzo[d]imidazol-5-amine] was tested. Which IC50 did it give?
Its IC50 is 20.1 nM.

`Cc1cccc2c(-c3nc(Nc4ccc(N(C)CCN(C)C)c(N)c4)ncc3C(F)(F)F)cn(C)c12` [Compound 369, N^4-(4-(1,7-dimethyl-1H-indol-3-yl)-5-(trifluoromethyl)pyrimidin-2-yl)-N^1-(2-(dimethylamino)ethyl)-N^1-methylbenzene-1,2,4-triamine] was tested. Which IC50 did it give?
Its IC50 is 27.6 nM.

How did the IC50 turn out when `CC(=O)Nc1cc(Nc2ncc(C(F)(F)F)c(-c3cn(C)c4c(C)cccc34)n2)ccc1N(CCN(C)C)C(C)=O` [Compound 370, N-(2-acetamido-4-((4-(1,7-dimethyl-1H-indol-3-yl)-5-(trifluoromethyl)pyrimidin-2-yl)amino)phenyl)-N-(2-(dimethylamino)ethyl)acetamide] was run?
Its IC50 is 77.1 nM.

How did the IC50 turn out when `Cc1cccc2c(-c3nc(Nc4ccc5c(c4)nc(C)n5CCN(C)C)ncc3C(F)(F)F)cn(C)c12` [Compound 371, N-(4-(1,7-dimethyl-1H-indol-3-yl)-5-(trifluoromethyl)pyrimidin-2-yl)-1-(2-(dimethylamino)ethyl)-2-methyl-1H-benzo[d]imidazol-5-amine] was run?
The IC50 was 110 nM.

`CC(=O)Nc1cc(Nc2ncc(C(F)(F)F)c(-c3cn(C)c4c(C)cccc34)n2)ccc1OCCN(C)C` [Compound 372, N-(5-((4-(1,7-dimethyl-1H-indol-3-yl)-5-(trifluoromethyl)pyrimidin-2-yl)amino)-2-(2-(dimethylamino)ethoxy)phenyl)acetamide] was tested. Which IC50 did it give?
The IC50 was 30.2 nM.

How did the IC50 turn out when `COc1cccc2c(-c3nc(Nc4ccc(N(CCN(C)C)C(C)=O)c(NC(C)=O)c4)ncc3C(F)(F)F)c[nH]c12` [Compound 379, N-(2-acetamido-4-((4-(7-methoxy-1H-indol-3-yl)-5-(trifluoromethyl)pyrimidin-2-yl)amino)phenyl)-N-(2-(dimethylamino)ethyl)acetamide] was run?
The IC50 was 149 nM.

`COc1cccc2c(-c3nc(Nc4ccc5c(c4)nc(C)n5CCN(C)C)ncc3C(F)(F)F)c[nH]c12` [Compound 380, 1-(2-(dimethylamino)ethyl)-N-(4-(7-methoxy-1H-indol-3-yl)-5-(trifluoromethyl)pyrimidin-2-yl)-2-methyl-1H-benzo[d]imidazol-5-amine] was tested. Which IC50 did it give?
Its IC50 is 50.5 nM.

`COc1cccc2c(-c3nc(Nc4ccc(N(C)CCN(C)C)c(N)c4)ncc3C(F)(F)F)cn(C)c12` [Compound 385, N^1-(2-(dimethylamino)ethyl)-N^4-(4-(7-methoxy-1-methyl-1H-indol-3-yl)-5-(trifluoromethyl)pyrimidin-2-yl)-N^1-methylbenzene-1,2,4-triamine] was tested. Which IC50 did it give?
Its IC50 is 45.3 nM.

For `COc1cccc2c(-c3nc(Nc4ccc(N(CCN(C)C)C(C)=O)c(NC(C)=O)c4)ncc3C(F)(F)F)cn(C)c12` [Compound 386, N-(2-acetamido-4-((4-(7-methoxy-1-methyl-1H-indol-3-yl)-5-(trifluoromethyl)pyrimidin-2-yl)amino)phenyl)-N-(2-(dimethylamino)ethyl)acetamide], which IC50 is on record?
Its IC50 is 43.9 nM.

How did the IC50 turn out when `COc1cccc2c(-c3nc(Nc4ccc5c(c4)nc(C)n5CCN(C)C)ncc3C(F)(F)F)cn(C)c12` [Compound 387, 1-(2-(dimethylamino)ethyl)-N-(4-(7-methoxy-1-methyl-1H-indol-3-yl)-5-(trifluoromethyl)pyrimidin-2-yl)-2-methyl-1H-benzo[d]imidazol-5-amine] was run?
Its IC50 is 114 nM.

With `COc1cccc2c(-c3nc(Nc4ccc(OCCN(C)C)c(NC(C)=O)c4)ncc3C(F)(F)F)cn(C)c12` [Compound 388, N-(2-(2-(dimethylamino)ethoxy)-5-((4-(7-methoxy-1-methyl-1H-indol-3-yl)-5-(trifluoromethyl)pyrimidin-2-yl)amino)phenyl)acetamide] as the compound, how does the IC50 read?
Its IC50 is 44.8 nM.

Which IC50 does the source give for `CCn1cc(-c2nc(Nc3ccc(N(C)CCN(C)C)c(NC(C)=O)c3)ncc2C(F)(F)F)c2cc(F)ccc21` [Compound 391, N-(2-((2-(dimethylamino)ethyl)(methyl)amino)-5-((4-(1-ethyl-5-fluoro-1H-indol-3-yl)-5-(trifluoromethyl)pyrimidin-2-yl)amino)phenyl)acetamide] here?
Its IC50 is 50 nM.

How did the IC50 turn out when `CC(=O)Nc1cc(Nc2ncc(Cl)c(-c3c[nH]c4ccccc34)n2)ccc1NC(=O)CN(C)C` [Compound 393, N-(2-acetamido-4-((5-chloro-4-(1H-indol-3-yl)pyrimidin-2-yl)amino)phenyl)-2-(dimethylamino)acetamide] was run?
The IC50 was 23.1 nM.

For `CC(=O)Nc1cc(Nc2ncc(Cl)c(-c3c[nH]c4ccccc34)n2)ccc1NC(=O)CCN(C)C` [Compound 394a, N-(2-acetamido-4-((5-chloro-4-(1H-indol-3-yl)pyrimidin-2-yl)amino)phenyl)-3-(dimethylamino)propanamide], which IC50 is on record?
The IC50 was 29.1 nM.

With `Cc1nc2ccc(Nc3ncc(Cl)c(-c4c[nH]c5ccccc45)n3)cc2[nH]1` [Compound 394b, N-(5-chloro-4-(1H-indol-3-yl)pyrimidin-2-yl)-2-methyl-1H-benzo[d]imidazol-6-amine] as the compound, how does the IC50 read?
The IC50 was 131 nM.

`CC(=O)Nc1cc(Nc2ncc(Cl)c(-c3cn(C)c4ccccc34)n2)ccc1N(C)CCN(C)C` [Compound 395, N-(5-((5-chloro-4-(1-methyl-1H-indol-3-yl)pyrimidin-2-yl)amino)-2-((2-(dimethylamino)ethyl)(methyl)amino)phenyl)acetamide] was tested. Which IC50 did it give?
The IC50 was 77.3 nM.

With `CC(=O)Nc1cc(Nc2ncc(Cl)c(-c3cn(C)c4ccccc34)n2)cc(F)c1N(C)CCN(C)C` [Compound 396, N-(5-((5-chloro-4-(1-methyl-1H-indol-3-yl)pyrimidin-2-yl)amino)-2-((2-(dimethylamino)ethyl)(methyl)amino)-3-fluorophenyl)acetamide] as the compound, how does the IC50 read?
The IC50 was 80.3 nM.
